Consider 3 compounds from ChEMBL document CHEMBL2429726, “Gamma secretase modulators” (ACS Med Chem Lett, 2013).

One assay deals with Rattus norvegicus. Put plainly: Antialzheimer activity in CD rat assessed as reduction of amyloid beta42 level in CSF at 30 mg/kg, po after 3 hrs relative to control. The assay is classed as functional. More on the design: scale not given: the % may be the effect or the level left.
The next assay deals with Gamma-secretase. The assay can be described thus: Inhibition of gamma secretase-mediated amyloid beta42 production in HEK293 cells expressing APP after 5 hrs by sandwich immunoassay. Type of assay: cell-based, Homo sapiens.

Broadly, the IC50 is the midpoint of a concentration-inhibition curve. On to `COc1cc(-c2noc3c2CCCC3NCc2cc(F)cc(F)c2)ccc1-n1cnc(C)c1` (stereo unspecified), for which, in the assay with Rattus norvegicus, the Activity is reported as 20%. Besides, the IC50 against Gamma-secretase was determined as 29 nM.

In the case of `COc1cc(-c2noc3c2CCCC3Nc2ccc(F)cc2)ccc1-n1cnc(C)c1` (stereo unspecified), the Activity in the assay on Rattus norvegicus worked out at 58%. The midpoint of inhibition at Gamma-secretase, the IC50, lay at 39 nM.

In the case of `COc1cc(-c2noc3c2CCCC3(O)c2cc(F)cc(F)c2)ccc1-n1cnc(C)c1` (stereo unspecified), the Activity with Rattus norvegicus was 20%. The IC50 against Gamma-secretase is 190 nM.
